Assay results as given in ChEMBL document CHEMBL1201862, “PubChem BioAssay data set” (2004).
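Each compound was tested at five concentrations against cells in 96-well plates for 48 hours. GI50 is the concentration that inhibits growth by half.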 Calls of active or inactive are those of the source. Rule as the data show it: active = GI50 up to about 1.1 µM and inactive = higher.

What was measured:
Assay in all cases: NCI-60 cell line screen, 48 h
HCT-116 = tested on: HCT-116
SNB-75 = tested on: SNB-75
SF-539 = tested on: SF-539
A549 = tested on: A549
TK-10 = tested on: TK-10
786-0 = tested on: 786-0
SN12C = tested on: SN12C
SNB-19 = tested on: SNB-19
OVCAR-4 = tested on: OVCAR-4
OVCAR-3 = tested on: OVCAR-3
HOP-92 = tested on: HOP-92
SK-MEL-28 = tested on: SK-MEL-28
M14 = tested on: M14
SK-OV-3 = tested on: SK-OV-3

Measured: GI50

CC(C)OP(=O)(OC(C)C)/C(Cl)=N/Nc1ccc([N+](=O)[O-])cc1
inactive: HCT-116 > 100 µM | SNB-75 > 100 µM | SF-539 > 100 µM | A549 > 100 µM | TK-10 > 100 µM | 786-0 > 100 µM | SN12C > 100 µM | SNB-19 > 100 µM | OVCAR-4 > 100 µM | OVCAR-3 > 100 µM | HOP-92 44.9 µM | SK-MEL-28 > 100 µM | M14 > 100 µM

COc1cc(/C=C\c2ccncc2)cc(OC)c1OC
inactive: HCT-116 99.1 µM | SNB-75 37.8 µM | SF-539 > 100 µM | A549 69 µM | TK-10 > 100 µM | 786-0 > 100 µM | SN12C > 100 µM | SNB-19 > 100 µM | OVCAR-4 > 100 µM | OVCAR-3 > 100 µM | HOP-92 36.5 µM | SK-MEL-28 > 100 µM | M14 42.9 µM

CS/C(=N\c1nccs1)NC(=O)c1cccc(Cl)c1
inactive: SK-OV-3 > 100 µM | HCT-116 > 100 µM | SNB-75 49.5 µM | SF-539 > 100 µM | A549 > 100 µM | TK-10 73.5 µM | 786-0 > 100 µM | SN12C 79.4 µM | SNB-19 > 100 µM | OVCAR-4 68.1 µM | OVCAR-3 75.2 µM | HOP-92 71.3 µM | SK-MEL-28 > 100 µM | M14 > 100 µM

COC(=O)C1CSC(c2csc(CCN)n2)=N1 (stereo unspecified)
inactive: SK-OV-3 > 100 µM | HCT-116 > 100 µM | SNB-75 > 100 µM | A549 > 100 µM | TK-10 > 100 µM | 786-0 > 100 µM | SN12C > 100 µM | SNB-19 > 100 µM | OVCAR-4 > 100 µM | OVCAR-3 > 100 µM | HOP-92 > 100 µM | SK-MEL-28 > 100 µM | M14 > 100 µM

COc1ccc(/C=N/N=C(\N)NO)c(OC)c1
inactive: SK-OV-3 75.2 µM | HCT-116 52 µM | SF-539 23.3 µM | A549 31.8 µM | 786-0 57.5 µM | SN12C 67.8 µM | SNB-19 > 100 µM | OVCAR-4 > 100 µM | OVCAR-3 37.7 µM | HOP-92 11.2 µM | SK-MEL-28 > 100 µM

Cc1cc(C(=O)N2CCN(Cc3ccccc3)CC2)c(C)o1
inactive: SK-OV-3 > 100 µM | HCT-116 > 100 µM | SNB-75 > 100 µM | SF-539 > 100 µM | A549 > 100 µM | TK-10 > 100 µM | 786-0 > 100 µM | SN12C > 100 µM | SNB-19 > 100 µM | OVCAR-4 > 100 µM | OVCAR-3 > 100 µM | HOP-92 > 100 µM | SK-MEL-28 > 100 µM | M14 > 100 µM

CC(C)(C)C(=O)C(c1ccc(-c2cscn2)cc1)c1ccc(-c2cscn2)cc1
inactive: SK-OV-3 29.8 µM | HCT-116 44 µM | SNB-75 6.25 µM | SF-539 23.6 µM | A549 29.6 µM | TK-10 31.9 µM | 786-0 21.5 µM | SN12C 34.7 µM | SNB-19 28.1 µM | OVCAR-4 3.25 µM | OVCAR-3 28.1 µM | HOP-92 9.55 µM | SK-MEL-28 46.3 µM | M14 97.5 µM

CCN(CC)CC(C(=O)Nc1c(C)cccc1C)/C(C)=N\NC(=S)NN (stereo unspecified)
inactive: SK-OV-3 > 100 µM | HCT-116 > 100 µM | SNB-75 > 100 µM | SF-539 > 100 µM | A549 > 100 µM | TK-10 > 100 µM | 786-0 > 100 µM | OVCAR-3 > 100 µM | HOP-92 > 100 µM | SK-MEL-28 > 100 µM | M14 > 100 µM

Clc1cc2nc[nH]c2cc1Cl
inactive: SK-OV-3 > 100 µM | SNB-75 18.3 µM | SF-539 > 100 µM | A549 > 100 µM | TK-10 > 100 µM | 786-0 > 100 µM | SN12C > 100 µM | SNB-19 > 100 µM | OVCAR-4 > 100 µM | OVCAR-3 > 100 µM | HOP-92 56 µM | SK-MEL-28 > 100 µM | M14 > 100 µM

Nc1ncnc2c1ncn2C1(CO)OC(CO)C(O)C1O (stereo unspecified)
inactive: SK-OV-3 > 100 µM | HCT-116 > 100 µM | SNB-75 > 100 µM | A549 > 100 µM | TK-10 > 100 µM | 786-0 > 100 µM | SN12C > 100 µM | SNB-19 > 100 µM | OVCAR-4 > 100 µM | HOP-92 > 100 µM | SK-MEL-28 > 100 µM | M14 > 100 µM

CC1CCCc2c1c1ccc3c(O)cccc3c1oc2=O (stereo unspecified)
inactive: SK-OV-3 20.7 µM | HCT-116 91.8 µM | SNB-75 8.15 µM | A549 56.9 µM | TK-10 28.8 µM | 786-0 19.5 µM | SN12C 43 µM | SNB-19 34.7 µM | OVCAR-4 14.1 µM | OVCAR-3 64.1 µM | SK-MEL-28 > 100 µM | M14 > 100 µM

COC(=O)C1(O)c2ccccc2N=C2C1CCN2C (stereo unspecified)
inactive: SK-OV-3 > 100 µM | HCT-116 > 100 µM | SNB-75 26.8 µM | SF-539 > 100 µM | A549 > 100 µM | TK-10 > 100 µM | 786-0 > 100 µM | SN12C > 100 µM | SNB-19 > 100 µM | OVCAR-4 > 100 µM | HOP-92 > 100 µM | SK-MEL-28 > 100 µM | M14 > 100 µM

c1c[nH]c(Cc2nc(Cc3c[nH]cn3)c[nH]2)n1
inactive: SK-OV-3 9.29 µM | HCT-116 29.5 µM | SNB-75 35.6 µM | SF-539 27.2 µM | A549 3.96 µM | TK-10 67.5 µM | 786-0 11.7 µM | SN12C 29.6 µM | SNB-19 22.5 µM | OVCAR-4 4.45 µM | OVCAR-3 55.8 µM | HOP-92 22 µM | SK-MEL-28 28.2 µM | M14 10.5 µM

N#CCc1nc2c(s1)C(=O)c1ccccc1C2=O
inactive: SK-OV-3 > 100 µM | HCT-116 14.3 µM | SNB-75 23.1 µM | SF-539 14.8 µM | TK-10 21.8 µM | 786-0 16.4 µM | SN12C 18.8 µM | SNB-19 21.4 µM | OVCAR-4 16.9 µM | OVCAR-3 15.8 µM | HOP-92 18.5 µM | SK-MEL-28 18.2 µM | M14 15.2 µM

CCOC(=O)NC(=O)c1cn(C2CCCCC2)c(=O)[nH]c1=O
inactive: SK-OV-3 77.3 µM | HCT-116 5.11 µM | SF-539 39.7 µM | A549 58.7 µM | TK-10 > 100 µM | 786-0 24.7 µM | SN12C > 100 µM | SNB-19 > 100 µM | OVCAR-4 67.6 µM | OVCAR-3 > 100 µM | HOP-92 > 100 µM | SK-MEL-28 > 100 µM | M14 55.1 µM

O=C1C2Nc3ccccc3SC2C(=O)N1c1ccc(Br)cc1 (stereo unspecified)
inactive: SK-OV-3 15.6 µM | SNB-75 24.5 µM | SF-539 26.4 µM | A549 31.6 µM | TK-10 28.8 µM | 786-0 18.9 µM | SN12C 35.9 µM | SNB-19 34.3 µM | OVCAR-4 12.8 µM | OVCAR-3 23.7 µM | HOP-92 10.9 µM | SK-MEL-28 62.2 µM | M14 33.5 µM

COc1cc2c(cc1OC)-c1c(cc(OC)c(OC)c1OC)C2=O
inactive: SK-OV-3 93.3 µM | HCT-116 > 100 µM | SNB-75 18.2 µM | SF-539 > 100 µM | A549 > 100 µM | TK-10 > 100 µM | 786-0 > 100 µM | SN12C > 100 µM | SNB-19 > 100 µM | OVCAR-3 > 100 µM | HOP-92 > 100 µM | SK-MEL-28 > 100 µM | M14 > 100 µM

CCOC(=O)C(=O)Nc1nc2ccc(OC)cc2s1
inactive: SK-OV-3 > 100 µM | SNB-75 > 100 µM | SF-539 > 100 µM | A549 > 100 µM | TK-10 > 100 µM | 786-0 > 100 µM | SN12C > 100 µM | SNB-19 > 100 µM | OVCAR-4 > 100 µM | OVCAR-3 > 100 µM | HOP-92 > 100 µM | SK-MEL-28 > 100 µM | M14 > 100 µM

NC(CCSCC(F)F)C(=O)O (stereo unspecified)
inactive: HCT-116 > 100 µM | SNB-75 > 100 µM | SF-539 > 100 µM | A549 > 100 µM | TK-10 > 100 µM | 786-0 > 100 µM | SN12C > 100 µM | SNB-19 > 100 µM | OVCAR-4 > 100 µM | OVCAR-3 > 100 µM | HOP-92 > 100 µM | SK-MEL-28 > 100 µM | M14 > 100 µM

O=C1CCNC/C1=C\c1ccccc1
inactive: SK-OV-3 55 µM | HCT-116 17.9 µM | SNB-75 37.8 µM | SF-539 17.4 µM | A549 22.2 µM | TK-10 26.1 µM | 786-0 15.6 µM | SN12C 34.5 µM | SNB-19 19.4 µM | OVCAR-4 15.9 µM | OVCAR-3 22.9 µM | SK-MEL-28 17.4 µM | M14 14 µM

CC1=CP(=O)(c2ccccc2)C=C(C)C1=C(Cl)Cl (stereo unspecified)
inactive: SK-OV-3 29.4 µM | HCT-116 3.2 µM | SNB-75 4.83 µM | SF-539 5.24 µM | A549 6.24 µM | TK-10 4.68 µM | 786-0 4.1 µM | SN12C 15.6 µM | SNB-19 17.7 µM | OVCAR-4 12.9 µM | OVCAR-3 16 µM | SK-MEL-28 11.2 µM | M14 4.99 µM
